Each structure is given as a SMILES string. Converted amounts (≈) assume the structure as drawn. Read-outs that look alike come from different tables or passages of the source.

These results are taken from patent US20120270935A1, “FORMULATIONS” (priority 2009, published 2012).

Experiment [1] deals with S. aureus ATCC 29213. Kind of experiment: Disc diffusion assay (DDA). The conditions noted are these: 200 μg per disc, Mueller-Hinton agar pH 7.0, overnight at 37° C. in air. Format: cell-based, Staphylococcus aureus. From the text: (§1) (a) staphylococci. The Staphylococcus aureus strain used was ATCC 29213. S. aureus and other staphylococci are common causes of a wide range of skin, skin structure and wound infections; S. aureus is also known to exacerbate eczema. The ATCC 29213 strain is known to be susceptible to beta-lactam antibiotics such as methicillin. The Staphylococcus epidermidis strain used was NCTC 11047. Staph. epidermidis forms part of the resident flora of skin and is an opportunistic pathogen which can cause biofilms to grow for instance on plastic surgical implants such as catheters. Unless otherwise stated, the staphylococci were cultured and maintained on Mueller-Hinton Medium (agar and broth) at pH 7.2; cultures were incubated aerobically at 37° C. for 19-20 hours, at pH 7 (±0.2). (b) C. striatum NCTC 764. Corynebacterium striatum is closely related to organisms (aerobic diphtheroids of the genus Corynebacterium) that cause body odour. It was cultured and maintained on Mueller-Hinton medium (agar and broth). All cultures were incubated aerobically at 37° C. for 72 hours, at pH 7 (±0.2). (c) streptococci. The strains tested were S. mutans ATCC 25175 and S. pyogenes ATCC 12344. S. mutans is a Gram-positive, microaerophilic bacterium which plays a significant role in dental caries and in infective endocarditis. Streptococcus pyogenes is associated with skin, soft tissue, burn and wound infections. […]
A sterile paper disc was impregnated with a sample of the test compound in a suitable solvent and 30 minutes allowed for the solvents to evaporate (where possible). […] The diameter of this zone of “inhibition” was measured using a ProtoCOL™ automated zone sizer (Synbiosis, Cambridge, UK). […]
(§2) Example 8 was repeated (except for the supplemented DDA assays), using S. aureus ATCC 29213 as the test organism. […] In the DDA assays, 200 μg is of each compound was loaded onto each disc: the culture medium was Mueller-Hinton agar at pH 7.0, and results were recorded after overnight incubation at 37° C. in air. […]

The test system of experiment [2] is P. acnes NCTC 737. In words: Minimum inhibitory concentration (MIC) assay, broth microtitre. To be noted: compound in DMSO, triplicate. Format: cell-based, Propionibacterium acnes. The method, then:
(§3) The first test micro-organism used was Propionibacterium acnes NCTC 737. This is a propionibacterial strain and is the type strain of the […]; it is fully susceptible to antibiotics.
(§4) The propionibacteria were cultured and maintained on Wilkins-Chalgren Anaerobe Medium (agar and broth) at pH 6.0; all cultures were incubated anaerobically at 37° C. for 72 hours.
This is a standard international method for quantitatively assessing the antimicrobial activity of a compound in a liquid medium. The method used a sterile 96-well microtitre plate, capable of holding about 200 μl of liquid per well. The wells contained liquid culture medium and ranges of decreasing concentrations of the relevant test compound in doubling dilutions (eg 1000, 500, 250, 125 . . . μg/ml, etc. down to 0.49 μg/ml). The culture medium was as described above.
The wells were inoculated with a liquid suspension of freshly grown micro-organism and incubated under the conditions described above. After incubation, the microtitre plate was examined visually (with the aid of a light box) for cloudiness in each well, which would indicate microbial growth. The MIC value was recorded as the lowest concentration of test compound required to inhibit microbial growth, ie the lowest concentration for which the liquid in the well remained clear.
The assays included both negative (culture medium with no micro-organisms) and positive (culture medium plus diluting solvent plus micro-organism) controls.
(§5) DDA assays, as described above, were carried out using as the test formulation the gel prepared in Example 2B above. Also tested was the Example 2B gel minus the Klucel™ thickener, which was also subjected to MIC and MBC assays. For the DDAs, which were performed in triplicate, 100 μl of the relevant formulation was loaded onto each disc, and zones of inhibition were recorded after 3 days' anaerobic incubation at 37° C. The MIC and MBC tests were performed in duplicate and the results recorded after 3 days and 7 days respectively, post-subculture onto drug-free medium. […]

The subject of another experiment is C. striatum NCTC 764. Kind of experiment: MIC assay. Format: cell-based, Corynebacterium striatum. To be noted: triplicate.
From the text: as §1, with “infections. S. mutans was cultured and maintained on Wilkins-Chalgren Anaerobe medium+1 g/L glucose (agar and broth); it was incubated in air at 37° C. for 48 hours, at pH 7 (±0.2) with 5% carbon dioxide.” for “infections.”
(§6) This is a standard international method for quantitatively assessing the antimicrobial activity of a compound in a liquid medium. […]
(§7) The wells were inoculated with a liquid suspension of freshly grown micro-organism and incubated under the conditions described above. […] The MIC value was recorded as the lowest concentration of test compound required to inhibit microbial growth, ie the lowest concentration for which the liquid in the well remained clear. […]

The subject of experiment [3] is S. aureus ATCC 29213. In words: MIC assay. Format: cell-based, Staphylococcus aureus. To be noted: Mueller-Hinton broth pH 7.0.
From the text: as §1, with “endocarditis.” for “endocarditis. Streptococcus pyogenes is associated with skin, soft tissue, burn and wound infections.”
as §6, §7, §2

The subject of experiment [4] is P. acnes NCTC 737. Kind of experiment: Disc diffusion assay (DDA). Format: cell-based, Propionibacterium acnes. The conditions noted are these: 200 μg compound per disc, DMSO. The method, then: as §3, §4
This is an internationally recognised standard method for qualitatively assessing the antimicrobial activity of a compound.
A sterile paper disc was impregnated with a sample of the test compound in a suitable solvent and 30 minutes allowed for the solvents to evaporate (where possible). The disc was then placed on an agar plate onto which the test micro-organism had been inoculated. The plate was then incubated under the conditions described above, following which it was examined visually for signs of microbial growth. If the test compound had antimicrobial activity, a circular zone of no growth would be obtained around the disc. The diameter of this zone of “inhibition” was measured using a ProtoCOL™ automated zone sizer (Synbiosis, Cambridge, UK). In general, a greater diameter and/or area of the zone of inhibition indicates a greater antimicrobial activity in the relevant test compound, although other factors such as test compound mobility through the agar gel may also influence the result.
as §5

With `CC(=O)c1c([O-])c(C)c([O-])c2c1OC1=CC(=O)C(C(C)=O)C(=O)C12C.[Cu+2]` (stereo not shown) [Copper usnate, copper (II) usnate], the DDA zone diameter with S. aureus ATCC 29213 [1] was 14.8 ± 0.3 mm. Also, the MIC was 0.49 µg/mL with P. acnes NCTC 737 [2], 3.9 µg/mL in the experiment with C. striatum NCTC 764 and 7.8 µg/mL in the experiment on S. aureus ATCC 29213 [3]. Moreover, the “DDA zone diameter, unsupplemented medium” value with P. acnes NCTC 737 [4] came out at 46.7 ± 0.4 mm.

Take `CC(=O)c1c(O)c(C)c(O)c2c1OC1=CC(=O)C(C(C)=O)C(=O)C12C` (stereo not shown) [Usnic acid, 2,6-diacetyl-7,9-dihydroxy-8,9b-dimethyl-1,3(2H,9bh)-dibenzofurandione]: the zone of inhibition at 200 µg/disc came to 13.6 ± 0.3 mm in the experiment on S. aureus ATCC 29213 [1] (Staphylococcus aureus, ATCC29213, read-out: DDA zone diameter) and 23.9 mm in the experiment on P. acnes NCTC 737 [4] (Cutibacterium acnes, NCTC737, read-out: DDA zone diameter, unsupplemented medium). For the same compound, the minimal inhibitory concentration (MIC) in the experiment on P. acnes NCTC 737 [2] (Cutibacterium acnes, NCTC737, read-out: MIC) was 0.49 µg/mL (≈ 1.42 µM); in the experiment on C. striatum NCTC 764 (Corynebacterium striatum, NCTC764, read-out: MIC), 7.8 µg/mL (≈ 22.7 µM); in the experiment with S. aureus ATCC 29213 [3] (Staphylococcus aureus, ATCC29213, read-out: MIC) it was 31.2 µg/mL (≈ 90.8 µM).
